Data: publication PMC7393680 (Organic & biomolecular chemistry, 2020)
Where two headings read alike, the source gives them in different places. Values belong to the compound of their own block, whether it stands above or below them.

What was measured:
BPTF [1] = details: prior lead inhibitor; cited from earlier work
5FW-BPTF bromodomain = 5FW-BPTF bromodomain (Homo sapiens, UniProt Q12830); test: SPR, 5FW-labeled His9-BPTF on NTA chip, steady-state; format: binding
BPTF [2] = details: ITC, cited from earlier work
[3] = molecular target: 5FW-BPTF bromodomain (His9-tagged, 5-fluorotryptophan-labelled); test: NMR titration

Compound: COC(=O)c1cccc(NC(=O)NC2CCN(c3ccnc(Nc4ccc(F)cc4)n3)C2)c1 (centres unmarked) [AU1]
Kd (BPTF [1]): 2800 nM

Kd (5FW-BPTF bromodomain): 250 ± 20 nM
Compound: CN(C)CCCOc1ccc(-c2cc(NCCCn3cccn3)nc(S(C)(=O)=O)n2)cc1 [compound 2, TP-238]
fold weaker affinity for BPTF over CECR2 (BPTF [2]; BPTF vs CECR2): 10 fold
Kd (BPTF [2]; read-out: Reported BPTF Kd, unlabeled BPTF, thesgc.org): 120 nM

Kd [3]: 720000 nM
Compound: Histone variant H2AZ.1 K4ac,K11ac peptide
